Measurements as given in ChEMBL document CHEMBL4364348, “Divalent cannabinoid-1 receptor ligands: A linker attachment point survey of SR141716A for development of high-affinity CB1R molecular probes” (Bioorg Med Chem Lett, 2019).

Columns and labels:
Cannabinoid receptor 1 [1] = target: T1, Cannabinoid receptor 1 (Homo sapiens, UniProt P21554); assay: Displacement of [3H]CP55940 from human CB1R in HEK293 cell membranes at 10 uM after 60 mins liquid scintillation analysis relative to control
Cannabinoid receptor 1 [2] = target: T1, Cannabinoid receptor 1; assay: Displacement of [3H]CP55940 from human CB1R in HEK293 cell membranes after 60 mins liquid scintillation analysis
D(2) dopamine receptor = D(2) dopamine receptor (Homo sapiens, UniProt P14416); assay: Binding affinity to human D2R
D(2) dopamine receptor, sequence (P14416 whole entry): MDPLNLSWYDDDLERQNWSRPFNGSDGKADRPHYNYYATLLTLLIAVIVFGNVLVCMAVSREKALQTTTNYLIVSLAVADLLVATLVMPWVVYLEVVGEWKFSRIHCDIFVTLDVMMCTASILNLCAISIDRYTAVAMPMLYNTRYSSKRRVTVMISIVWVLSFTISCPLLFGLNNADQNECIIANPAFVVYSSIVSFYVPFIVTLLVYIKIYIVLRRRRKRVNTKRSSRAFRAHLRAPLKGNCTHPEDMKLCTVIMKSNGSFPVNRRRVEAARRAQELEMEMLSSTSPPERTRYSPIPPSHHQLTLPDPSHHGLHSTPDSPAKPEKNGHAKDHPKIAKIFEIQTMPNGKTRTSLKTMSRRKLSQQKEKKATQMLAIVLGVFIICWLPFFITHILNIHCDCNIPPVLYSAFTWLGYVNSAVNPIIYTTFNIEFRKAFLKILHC

T1 sequence (P21554 whole entry): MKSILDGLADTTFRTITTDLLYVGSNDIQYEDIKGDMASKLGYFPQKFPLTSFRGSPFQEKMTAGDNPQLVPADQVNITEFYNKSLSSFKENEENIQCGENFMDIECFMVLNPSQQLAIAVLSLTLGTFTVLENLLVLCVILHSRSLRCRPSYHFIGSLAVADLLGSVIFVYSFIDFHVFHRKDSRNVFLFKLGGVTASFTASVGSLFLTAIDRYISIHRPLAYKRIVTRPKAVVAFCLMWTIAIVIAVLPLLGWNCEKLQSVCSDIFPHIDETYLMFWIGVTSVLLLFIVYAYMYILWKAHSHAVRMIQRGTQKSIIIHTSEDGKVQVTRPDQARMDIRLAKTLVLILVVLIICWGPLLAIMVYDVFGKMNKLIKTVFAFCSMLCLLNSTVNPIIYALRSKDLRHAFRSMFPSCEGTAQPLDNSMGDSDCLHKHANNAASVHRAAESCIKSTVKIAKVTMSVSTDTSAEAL

Row | inhibition (Cannabinoid receptor 1 [1]) [%] | Ki (Cannabinoid receptor 1 [2]) [nM] | SMILES | Ki (D(2) dopamine receptor) [nM]
1 | 5 |  | COC(=O)CCCCCCCCCCNC(=O)c1nn(-c2ccc(Cl)cc2Cl)c(-c2ccc(Cl)cc2)c1C | 
2 | 41 |  | CC(=O)NCCCC[C@H](NC(C)=O)C(=O)NCCCC[C@H](NC(C)=O)C(=O)NCCCCCCNC(=O)c1nn(-c2ccc(Cl)cc2Cl)c(-c2ccc(Cl)cc2)c1C | 
3 | 49 |  | COC(=O)CCCCCNC(=O)c1ccc(-c2ccc(-c3c(C)c(C(=O)NN4CCCCC4)nn3-c3ccc(Cl)cc3Cl)cc2)cc1 | 
4 | 23 |  | CC(=O)NCCCCCC(=O)NCc1ccc(C(=O)NCCCCCC(=O)NCCCCCCNC(=O)c2nn(-c3ccc(Cl)cc3Cl)c(-c3ccc(Cl)cc3)c2C)cc1 | 
5 |  | 2110 | Cc1c(C(=O)NN2CCCCC2)nn(-c2ccc(Cl)cc2Cl)c1-c1ccc(C#CCCOC(=O)CCCCCCCCCCNC(=S)Nc2ccc3c(c2)C(=O)OC32c3ccc(O)cc3Oc3cc(O)ccc32)cc1 | 
6 | 0 |  | COC(=O)CCCCCCCCCCNC(=O)c1ccc(-c2ccc(-c3c(C)c(C(=O)NN4CCCCC4)nn3-c3ccc(Cl)cc3Cl)cc2)cc1 | 
7 | 13 |  | COC(=O)CCCCCCCCCCNC(=O)CCCCCn1nc(C(=O)NN2CCCCC2)c(C)c1-c1ccc(Cl)cc1 | 
8 |  | 8.2 | CCOC(=O)c1ccc(CNC(=O)c2nn(-c3ccc(Cl)cc3Cl)c(-c3ccc(Cl)cc3)c2C)cc1 | 
9 | 23 |  | CC(=O)NCCOCCOCC(=O)NCCOCCOCC(=O)NCCCC[C@H](NC(C)=O)C(=O)NCCCC[C@H](NC(C)=O)C(=O)NCCCCCCNC(=O)c1nn(-c2ccc(Cl)cc2Cl)c(-c2ccc(Cl)cc2)c1C | 
10 |  | 131 | COC(=O)c1ccc(-c2ccc(-c3c(C)c(C(=O)NN4CCCCC4)nn3-c3ccc(Cl)cc3Cl)cc2)cc1 | 
11 | 33 |  | COC(=O)CCCCCNC(=O)CCCCCn1nc(C(=O)NN2CCCCC2)c(C)c1-c1ccc(Cl)cc1 | 
12 | 97 | 45 | Cc1c(C(=O)NN2CCCCC2)nn(-c2ccc(Cl)cc2Cl)c1-c1ccc(C#CCCOCCCCCC(=O)OC(C)(C)C)cc1 | 
13 | 59 | 1810 | Cc1c(C(=O)NN2CCCCC2)nn(-c2ccc(Cl)cc2Cl)c1-c1ccc(C#CCCOC(=O)CCCCCN)cc1 | 
14 | 37 |  | CC(=O)NCCOCCOCC(=O)NCCCC[C@H](NC(C)=O)C(=O)NCCCC[C@H](NC(C)=O)C(=O)NCCCCCCNC(=O)c1nn(-c2ccc(Cl)cc2Cl)c(-c2ccc(Cl)cc2)c1C | 
15 | 100 | 11 | CC(=O)OCCC#Cc1ccc(-c2c(C)c(C(=O)NN3CCCCC3)nn2-c2ccc(Cl)cc2Cl)cc1 | 
16 | 29 |  | Cc1c(C(=O)NCCCCCCNC(=O)CCCCCNC(=O)c2ccc(CNC(=O)CCCCCNC(=O)c3nn(-c4ccc(Cl)cc4Cl)c(-c4ccc(Cl)cc4)c3C)cc2)nn(-c2ccc(Cl)cc2Cl)c1-c1ccc(Cl)cc1 | 
17 |  | 13 | COC(=O)CCCCCNC(=O)c1nn(-c2ccc(Cl)cc2Cl)c(-c2ccc(Cl)cc2)c1C | 
18 | 87 | 97 | Cc1c(C(=O)NN2CCCCC2)nn(-c2ccc(Cl)cc2Cl)c1-c1ccc(C#CCCOC(=O)CCCCCCCCCCN)cc1 | 
19 | 98 | 180 | Cc1c(C(=O)NN2CCCCC2)nn(-c2ccc(Cl)cc2Cl)c1-c1ccc(C#CCCO)cc1 | 
20 | 79 | 106 | Cc1c(C(=O)NN2CCCCC2)nn(-c2ccc(Cl)cc2Cl)c1-c1ccc(C#CCCOC(=O)CCCCCNC(=O)OC(C)(C)C)cc1 | 
21 | 13 |  | Cc1c(C(=O)NN2CCCCC2)nn(CCCCCC(=O)NCCCCCC(=O)O)c1-c1ccc(Cl)cc1 | 
22 | 43 |  | Cc1c(C(=O)NCCCCCCCCCCC(=O)O)nn(-c2ccc(Cl)cc2Cl)c1-c1ccc(Cl)cc1 | 

Second part, the molecule before the results:

Row | SMILES | inhibition (Cannabinoid receptor 1 [1]) [%] | Ki (Cannabinoid receptor 1 [2]) [nM] | Ki (D(2) dopamine receptor) [nM]
23 | Cc1c(C(=O)NN2CCCCC2)nn(-c2ccc(Cl)cc2Cl)c1-c1ccc(C#CCCOC(=O)CCCCCNC(=S)Nc2ccc3c(c2)C(=O)OC32c3ccc(O)cc3Oc3cc(O)ccc32)cc1 |  | 260 | 
24 | Cc1c(C(=O)NCCCCCCNC(=O)CCCCCNC(=O)c2ccc(CNC(=O)CCCCCNC(=O)CCCCCNC(=O)c3ccc(CNC(=O)CCCCCNC(=O)c4nn(-c5ccc(Cl)cc5Cl)c(-c5ccc(Cl)cc5)c4C)cc3)cc2)nn(-c2ccc(Cl)cc2Cl)c1-c1ccc(Cl)cc1 | 0 |  | 
25 | Cc1c(C(=O)NN2CCCCC2)nn(-c2ccc(Cl)cc2Cl)c1-c1ccc(-c2ccc(C(=O)O)cc2)cc1 | 66 |  | 
26 | CCCN(CCc1ccc(NC(=O)CCC(=O)NCCOCCOCC(=O)NCCOCCOCC(=O)NCCCC[C@H](NC(C)=O)C(=O)NCCCC[C@H](NC(C)=O)C(=O)NCCCCCCNC(=O)c2nn(-c3ccc(Cl)cc3Cl)c(-c3ccc(Cl)cc3)c2C)cc1)C1CCc2c(O)cccc2C1 (some centres undefined) | 33 |  | 1.1
27 | CC(=O)NCCCCCC(=O)NCc1ccc(C(=O)NCCCCCC(=O)NCCCCCC(=O)NCc2ccc(C(=O)NCCCCCC(=O)NCCCCCCNC(=O)c3nn(-c4ccc(Cl)cc4Cl)c(-c4ccc(Cl)cc4)c3C)cc2)cc1 | 0 |  | 
28 | Cc1c(C(=O)NN2CCCCC2)nn(CCCCCC(=O)OC(C)(C)C)c1-c1ccc(Cl)cc1 | 37 |  | 
29 | CCCN(CCc1ccc(NC(=O)CCC(=O)NCCCC[C@H](NC(C)=O)C(=O)NCCCC[C@H](NC(C)=O)C(=O)NCCCCCCNC(=O)c2nn(-c3ccc(Cl)cc3Cl)c(-c3ccc(Cl)cc3)c2C)cc1)C1CCc2c(O)cccc2C1 (some centres undefined) | 62 |  | 0.84
30 | CCCN(CCc1ccc(NC(=O)CCC(=O)NCCCCCC(=O)NCc2ccc(C(=O)NCCCCCC(=O)NCCCCCC(=O)NCc3ccc(C(=O)NCCCCCC(=O)NCCCCCCNC(=O)c4nn(-c5ccc(Cl)cc5Cl)c(-c5ccc(Cl)cc5)c4C)cc3)cc2)cc1)C1CCc2c(O)cccc2C1 (centres undefined) | 0 |  | 4.2
31 | CC(=O)N[C@@H](CCCCNC(=O)c1nn(-c2ccc(Cl)cc2Cl)c(-c2ccc(Cl)cc2)c1C)C(=O)NCCCC[C@H](NC(C)=O)C(=O)NCCCCCCNC(=O)c1nn(-c2ccc(Cl)cc2Cl)c(-c2ccc(Cl)cc2)c1C | 11 |  | 
32 | CNC(=O)c1ccc(-c2ccc(-c3c(C)c(C(=O)NN4CCCCC4)nn3-c3ccc(Cl)cc3Cl)cc2)cc1 | 55 |  | 
33 | CC(=O)N[C@@H](CCCCNC(=O)COCCOCCNC(=O)COCCOCCNC(=O)c1nn(-c2ccc(Cl)cc2Cl)c(-c2ccc(Cl)cc2)c1C)C(=O)NCCCC[C@H](NC(C)=O)C(=O)NCCCCCCNC(=O)c1nn(-c2ccc(Cl)cc2Cl)c(-c2ccc(Cl)cc2)c1C | 29 |  | 
34 | Cc1c(C(=O)NN2CCCCC2)nn(CCCCCC(=O)O)c1-c1ccc(Cl)cc1 | 10 |  | 
35 | CC(=O)N[C@@H](CCCCNC(=O)COCCOCCNC(=O)c1nn(-c2ccc(Cl)cc2Cl)c(-c2ccc(Cl)cc2)c1C)C(=O)NCCCC[C@H](NC(C)=O)C(=O)NCCCCCCNC(=O)c1nn(-c2ccc(Cl)cc2Cl)c(-c2ccc(Cl)cc2)c1C | 23 |  | 
36 | CNC(=O)CCCCCn1nc(C(=O)NN2CCCCC2)c(C)c1-c1ccc(Cl)cc1 | 3 |  | 
37 | CCCN(CCc1ccc(NC(=O)CCC(=O)NCCOCCOCC(=O)NCCCC[C@H](NC(C)=O)C(=O)NCCCC[C@H](NC(C)=O)C(=O)NCCCCCCNC(=O)c2nn(-c3ccc(Cl)cc3Cl)c(-c3ccc(Cl)cc3)c2C)cc1)C1CCc2c(O)cccc2C1 (some centres undefined) | 44 |  | 2.4
38 | CCCN(CCc1ccc(NC(=O)CCC(=O)NCCCCCC(=O)NCc2ccc(C(=O)NCCCCCC(=O)NCCCCCCNC(=O)c3nn(-c4ccc(Cl)cc4Cl)c(-c4ccc(Cl)cc4)c3C)cc2)cc1)C1CCc2c(O)cccc2C1 (centres undefined) | 33 |  | 2.2
